Data reported in patent publication US3974140A, “Ureidoacetamido-penicillins” (Bayer Aktiengesellschaft, priority 1970, dated 1976).

How the values were obtained:
Test in all cases: MIC, liquid medium test tube series dilution test
[1] = tested on: Streptoc. faec. ATCC 9790; format: cell-based; conditions: Strep. faec. (Enterococcus) ATCC 9790, 24 hours, 37°C
Description: (§1) The chemotherapeutic activity of the new penicillins was tested in vivo and in vitro. The in vitro inhibition values (MIC = minimum inhibition concentration (see Tables 1 and 2) were determined in a liquid medium in the test tube series dilution test, with readings being taken after 24 hours' incubation at 37°C. The MIC is indicated by the non-turbid test tube in the dilution series. A complete medium of the following composition was used as the nutrient medium:
(§2) The figures quoted in the Examples for the effectiveness against certain bacteria (units/ml) are minimum inhibitory concentrations in the test tube series dilution test after 24 hours' incubation.

Klebsiella 63 = format: cell-based; conditions: Klebsiella 63, 24 hours, 37°C
Description: as §1, §2

E. coli A 261 = format: cell-based; conditions: E. coli A 261, 24 hours, 37°C
Description: as §1, §2

E. coli C 165 = format: cell-based; conditions: E. coli C 165, 24 hours, 37°C
Description: as §1, §2

Proteus vulg. 3400 = format: cell-based, Proteus vulgaris; conditions: Proteus vulg. 3400, 24 hours, 37°C
Description: as §1, §2

Psdm. aerug. Walter = format: cell-based, Pseudomonas aerug.; conditions: 24 hours, 37°C
Description: as §1, §2

Staph. aureus 133 = format: cell-based, Staphylococcus aureus; conditions: Staph. aureus 133, 24 hours, 37°C
Description: as §1, §2

Proteus vulg. 1017 = format: cell-based, Proteus vulgaris; conditions: Proteus vulg. 1017, 24 hours, 37°C
Description: as §1, §2

E. coli 183/58 = format: cell-based; conditions: E. coli 183/58, 24 hours, 37°C
Description: as §1, §2

Psdm. aerug. Bonn = format: cell-based, Pseudomonas aerug.; conditions: 24 hours, 37°C
Description: as §1, §2

E. coli 14 = format: cell-based; conditions: E. coli 14, 24 hours, 37°C
Description: as §1, §2

Row | Compound | MIC [1] | MIC (Klebsiella 63) | MIC (E. coli A 261) | MIC (E. coli C 165) | MIC (Proteus vulg. 3400) | MIC (Psdm. aerug. Walter) | MIC (Staph. aureus 133) | MIC (Proteus vulg. 1017) | MIC (E. coli 183/58) | MIC (Psdm. aerug. Bonn) | MIC (E. coli 14)
1 | CN(C(=O)CCCCl)C(=O)NC(C(=O)N[C@@H]1C(=O)N2[C@@H]1SC(C)(C)[C@@H]2C(=O)O)c1cccs1 (stereo partly drawn) [Example 5, Sodium D,L-(3-γ-chlorobutyryl-3-methyl-ureido)-(2-thienyl)methylpenicillin] | 100-500 units/ml | 20-100 units/ml | 100-500 units/ml | 4-20 units/ml | 20-100 units/ml | 20-100 units/ml | < 0.8 units/ml |  |  |  | 
2 | COC(=O)N(C)C(=O)NC(C(=O)N[C@@H]1C(=O)N2[C@@H]1SC(C)(C)[C@@H]2C(=O)O)c1cccs1 (stereo partly drawn) [Example 20, Sodium D,L-α-(3-methoxycarbonyl-3-methyl-ureido)-2-thienylmethylpenicillin] | 20-100 units/ml | 20-100 units/ml | > 500 units/ml | 20-100 units/ml | 100-500 units/ml | 100-500 units/ml | < 0.8 units/ml |  |  |  | 
3 | C=CCN(C(=O)NC(C(=O)N[C@@H]1C(=O)N2[C@@H]1SC(C)(C)[C@@H]2C(=O)O)c1cccs1)C(=O)c1ccccc1 (stereo partly drawn) [Example 21, Sodium D,L-α-(3-benzoyl-3-allyl-ureido)-2-thienylmethylpenicillin] | 100-500 units/ml | 20-100 units/ml | > 500 units/ml | 20-100 units/ml | 20-100 units/ml | 100-500 units/ml | < 0.8 units/ml |  |  |  | 
4 | CN(C(=O)NC(C(=O)N[C@@H]1C(=O)N2[C@@H]1SC(C)(C)[C@@H]2C(=O)O)c1cccs1)C(=O)c1ccco1 (stereo partly drawn) [Example 22, Sodium D,L-α-(3-[2-furoyl]-3-methyl-ureido)-2-thienylmethylpenicillin] | ~ 20 units/ml | 20-100 units/ml | > 500 units/ml | 4-20 units/ml | 4-20 units/ml | 20-100 units/ml | < 0.8 units/ml |  |  |  | 
5 | CN(C)C(=O)N(C)C(=O)NC(C(=O)N[C@@H]1C(=O)N2[C@@H]1SC(C)(C)[C@@H]2C(=O)O)c1cccs1 (stereo partly drawn) [Example 23, Sodium D,L-α-(3-dimethylaminocarbonyl-3-methyl-ureido)-2-thienylmethylpenicillin] | 100-500 units/ml | > 500 units/ml | > 500 units/ml | 100-500 units/ml | > 500 units/ml | > 500 units/ml | 0.8-4 units/ml |  |  |  | 
6 | CSc1ccc(C(NC(=O)N(C)C(=O)c2ccccc2)C(=O)N[C@@H]2C(=O)N3[C@@H]2SC(C)(C)[C@@H]3C(=O)O)cc1 (stereo partly drawn) [Example 33, Sodium α-(3-benzoyl-3-methyl-ureido)-4-methylthiobenzylpenicillin] | 20-100 units/ml | 4-20 units/ml | 100-500 units/ml | 4-20 units/ml |  | 4-20 units/ml | < 0.8 units/ml | 4-20 units/ml |  |  | 
7 | CN(C(=O)CCCl)C(=O)NC(C(=O)N[C@@H]1C(=O)N2[C@@H]1SC(C)(C)[C@@H]2C(=O)O)C1CC=CCC1 (stereo partly drawn) [Example 36, Sodium α-(3-β-chloropropionyl-3-methyl-ureido)-cyclohex-3-enylmethylpenicillin] | 100-500 units/ml | > 500 units/ml | > 500 units/ml | 100-500 units/ml |  | > 500 units/ml | 4-20 units/ml | > 500 units/ml |  |  | 
8 | Cc1noc(C)c1C(=O)N(C)C(=O)N[C@@H](C(=O)N[C@@H]1C(=O)N2[C@@H]1SC(C)(C)[C@@H]2C(=O)O)c1ccccc1 [Example 76] |  |  |  |  |  |  | < 0.8 units/ml |  | ~ 4 units/ml |  | 
9 | CC(=O)N(Cc1ccccc1)C(=O)N[C@@H](C(=O)N[C@@H]1C(=O)N2[C@@H]1SC(C)(C)[C@@H]2C(=O)O)c1ccccc1 [Example 87] |  |  |  |  |  |  | < 0.8 units/ml |  |  |  | 
10 | CN(C(=O)N[C@@H](C(=O)N[C@@H]1C(=O)N2[C@@H]1SC(C)(C)[C@@H]2C(=O)O)c1ccccc1)C(=O)c1ccco1 [Example 91, Sodium D(-)-α-(3-[2-furoyl]-3-methyl-ureido)-benzylpenicillin] |  |  |  |  |  |  | < 0.8 units/ml |  |  |  | 
11 | Sodium D(-)-α-(3-[2-furoyl]-3-phenyl-ureido)-benzylpenicillin [Example 105 B] | 20-100 units/ml | 100-500 units/ml | > 500 units/ml | 4-20 units/ml |  | > 500 units/ml | < 0.8 units/ml | > 500 units/ml |  |  | 

More lines, now with the values ahead:

Row | MIC [1] | MIC (Klebsiella 63) | MIC (E. coli A 261) | MIC (E. coli C 165) | MIC (Proteus vulg. 3400) | MIC (Psdm. aerug. Walter) | MIC (Staph. aureus 133) | MIC (Proteus vulg. 1017) | MIC (E. coli 183/58) | MIC (Psdm. aerug. Bonn) | MIC (E. coli 14) | Compound
12 |  |  | > 500 units/ml |  |  |  | < 0.8 units/ml |  |  |  |  | CCCN(C(=O)N[C@@H](C(=O)N[C@@H]1C(=O)N2[C@@H]1SC(C)(C)[C@@H]2C(=O)O)c1ccccc1)C(=O)c1ccco1 [Example 92 B, Sodium D (-)-α-(3-[2-furoyl]-3-n-propyl-ureido)-benzylpenicillin]
13 |  |  | > 500 units/ml |  |  |  | < 0.8 units/ml |  |  |  |  | CCN(C(=O)N[C@@H](C(=O)N[C@@H]1C(=O)N2[C@@H]1SC(C)(C)[C@@H]2C(=O)O)c1ccccc1)C(=O)c1ccco1 [Example 93 B, Sodium D(-)-α-(3-[2-furoyl]-3-ethyl-ureido)-benzylpenicillin]
14 | 100-500 units/ml | > 500 units/ml | > 500 units/ml | 20-100 units/ml |  | 100-500 units/ml | < 0.8 units/ml | ~500 units/ml |  |  |  | CC1(C)S[C@@H]2[C@H](NC(=O)[C@H](NC(=O)N(C(=O)c3ccccc3)c3ccccc3)c3ccccc3)C(=O)N2[C@H]1C(=O)O [Example 99 B, Sodium D(-)-α-(3-benzoyl-3-phenyl-ureido)-benzylpenicillin]
15 | ~20 units/ml | 100-500 units/ml | > 500 units/ml | 20-100 units/ml |  | 100-500 units/ml | < 0.8 units/ml | 100-500 units/ml |  |  |  | CC1(C)S[C@@H]2[C@H](NC(=O)[C@H](NC(=O)N3CCCCCC3=O)c3ccccc3)C(=O)N2[C@H]1C(=O)O [Example 101 B, Sodium D(-)-α-(hexahydroazepin-2-on-1-yl-carbonyl-amino)-benzylpenicillin]
16 |  |  | > 500 units/ml |  |  |  | < 0.8 units/ml |  |  |  |  | CC1(C)S[C@@H]2[C@H](NC(=O)[C@H](NC(=O)N3CCCC3=O)c3ccccc3)C(=O)N2[C@H]1C(=O)O [Example 102, Sodium D(-)-β-(pyrrolid-2-on-1-yl-carbonylamino)-benzylpenicillin]
17 | 20-100 units/ml |  | > 500 units/ml | 4-20 units/ml |  |  | < 0.8 units/ml | 100-500 units/ml |  |  |  | CN(C=O)C(=O)N[C@@H](C(=O)N[C@@H]1C(=O)N2[C@@H]1SC(C)(C)[C@@H]2C(=O)O)c1ccccc1 [Example 103, Sodium D(-)-β-(3-formyl-3-methyl-ureido)-benzylpenicillin]
18 | ~ 20 units/ml | 100-500 units/ml | > 500 units/ml | 4-20 units/ml |  | 20-100 units/ml | < 0.8 units/ml | 20-100 units/ml |  | 0.8-4 units/ml |  | CCN(C(=O)N[C@@H](C(=O)N[C@@H]1C(=O)N2[C@@H]1SC(C)(C)[C@@H]2C(=O)O)c1ccccc1)C(=O)c1ccc(OC)c([N+](=O)[O-])c1 [Example 108, Sodium D(-)-α-(3-[3-nitro-4-methoxy-benzoyl]-3-ethyl-ureido)benzylpenicillin]
19 | 4-20 units/ml | 100-500 units/ml | > 500 units/ml | 4-20 units/ml |  | 50-100 units/ml | 0.8 units/ml | 20-100 units/ml |  |  |  | CCCN(C(=O)N[C@@H](C(=O)N[C@@H]1C(=O)N2[C@@H]1SC(C)(C)[C@@H]2C(=O)O)c1ccccc1)C(=O)c1ccc(OC)c([N+](=O)[O-])c1 [Example 109, Sodium D(-)-α-(3-[3-nitro-4-methoxybenzoyl]-3-n-propyl-uredio)-benzylpenicillin]
20 |  |  |  |  | 50 units/ml |  |  |  |  | 25 units/ml | 6.25 units/ml | CC1(C)S[C@@H]2[C@H](NC(=O)[C@H](NC(=O)NC(=O)c3ccccc3)c3ccccc3)C(=O)N2[C@H]1C(=O)O [sodium D(-)-α-(3-benzoylureido)benzylpenicillin, reference compound]
